Results: patent US10227344B2, “CK2 inhibitors, compositions and methods thereof” (Polaris Pharmaceuticals, Inc., priority 2016, dated 2019)

Columns and labels:
Ramos = assay: Cancer cell panel, cell viability (resazurin): Burkitt's Lymphoma, Ramos; format: cell-based; details: Homo sapiens, 72 hours, single agent, read-out: Example 3 IC50
Experimental: (§1) Cells were plated in 96-well plates and treated for 72 hours with a serially diluted CK2 inhibitor or anti-cancer drug or their combination. The suspension cell lines were treated right after plating, while the adherent cells were allowed to attach overnight prior to the start of the treatment.
(§2) Cell viability was determined by adding resazurin to cell cultures and measuring fluorescence with a plate reader. Relative cell viability was calculated by dividing the cell viability signal from a test sample by that of a non-treated control. […] Bliss Independence and Highest Single Agent models were used to determine if there is synergy, additivity or antagonism between the CK2 inhibitor and an anti-cancer drug.

BT-20 = assay: Cancer cell panel, cell viability (resazurin): Breast, BT-20; format: cell-based; details: Homo sapiens; BT-20 (Breast), 72 hours, single agent; read-out: Example 3 IC50
purified CK2α enzyme = purified CK2α enzyme (Homo sapiens, UniProt P68400); assay: CK2 Protein Kinase Inhibition Assay (coupled PK/LDH assay); format: biochemical; details: CK2 enzyme 25 nM, 100 μM ATP, 37° C., Morrison equation
purified CK2α enzyme, sequence (P68400 whole entry): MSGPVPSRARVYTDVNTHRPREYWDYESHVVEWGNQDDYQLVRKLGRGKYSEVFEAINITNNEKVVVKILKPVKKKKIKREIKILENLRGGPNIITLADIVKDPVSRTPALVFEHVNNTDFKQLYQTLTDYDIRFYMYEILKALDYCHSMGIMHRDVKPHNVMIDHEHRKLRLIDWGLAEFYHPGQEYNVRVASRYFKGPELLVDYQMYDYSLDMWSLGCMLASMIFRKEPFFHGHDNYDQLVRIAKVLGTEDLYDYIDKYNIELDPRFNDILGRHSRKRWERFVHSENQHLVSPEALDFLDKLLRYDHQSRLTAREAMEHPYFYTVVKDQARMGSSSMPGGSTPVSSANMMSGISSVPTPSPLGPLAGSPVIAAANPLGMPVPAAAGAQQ
Outline: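 Purified CK2α at 25 nM final, 1.5 mM peptide substrate, 100 μM ATP, pH 8.25 Tris buffer; compounds pre-incubated 10 min at 37° C. ADP coupled via PK/LDH to NADH loss at 340 nm over 30 min, 37° C. Ki from rate versus concentration by Morrison equation, triplicate points.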

H460 = assay: Cancer cell panel, cell viability (resazurin): NSCLC, H460; format: cell-based; details: Homo sapiens, NCI-H460, 72 hours, single agent, read-out: Example 3 IC50
MDA-MB-157 = assay: Cancer cell panel, cell viability (resazurin): Breast, MDA-MB-157; format: cell-based; details: Homo sapiens; MDA-MB-157 (Breast), 72 hours, single agent; read-out: Example 3 IC50
U87MG = assay: Cancer cell panel, cell viability (resazurin): Glioblastoma, U87MG; format: cell-based; details: Homo sapiens, U-87 MG, 72 hours, single agent, read-out: Example 3 IC50
NAMALWA = assay: Cancer cell panel, cell viability (resazurin): Burkitt's Lymphoma, NAMALWA; format: cell-based; details: 72 hours, single agent, read-out: Example 3 IC50
Experimental: as §1, §2

Caov-3 = assay: Cancer cell panel, cell viability (resazurin): Ovarian, Caov-3; format: cell-based; details: Homo sapiens; Caov-3 (Ovarian), 72 hours, single agent; read-out: Example 3 IC50
A375 = assay: Cancer cell panel, cell viability (resazurin): Melanoma, A375; format: cell-based; details: Homo sapiens, A-375, 72 hours, single agent, read-out: Example 3 IC50
MDA-MB-453 = assay: Cancer cell panel, cell viability (resazurin): Breast, MDA-MB-453; format: cell-based; details: Homo sapiens; MDA-MB-453 (Breast), 72 hours, single agent; read-out: Example 3 IC50
Experimental: as §1, §2

H1299 = assay: Cancer cell panel, cell viability (resazurin): NSCLC, H1299; format: cell-based; details: Homo sapiens, NCI-H1299, 72 hours, single agent, read-out: Example 3 IC50
Experimental: as §1, §2

H2122 = assay: Cancer cell panel, cell viability (resazurin): NSCLC, H2122; format: cell-based; details: Homo sapiens, NCI-H2122, 72 hours, single agent, read-out: Example 3 IC50

Compound C[S@+]([O-])Cc1cc(Nc2cc(NC3CC3)n3ncc(C#N)c3n2)ccc1Cl [Example 3, (S)(+)-5-((4-Chloro-3-((methylsulfinyl)methyl)phenyl)amino)-7-(cyclopropylamino)pyrazolo[1,5-a]pyrimidine-3-carbonitrile] has an IC50 (Ramos) of 312 nM, an IC50 (BT-20) of 98 nM and a Ki (purified CK2α enzyme) of less than 2.5 nM. For the same compound, the IC50 (H460) was 350 nM, the IC50 (MDA-MB-157) was 447 nM and the IC50 (U87MG) was 1120 nM. For the same compound, the IC50 (NAMALWA) was 206 nM, the IC50 (Caov-3) was 50 nM and the IC50 (A375) was 218 nM. It also gave an IC50 (MDA-MB-453) of 148 nM, an IC50 (H1299) of 246 nM and an IC50 (H2122) of 227 nM.
